# Experimental data as given in ChEMBL document CHEMBL3425435, “4,6-Diarylaminothiazines as BACE1 Inhibitors and Their Use for the Reduction of Beta-Amyloid Production” (ACS Med Chem Lett, 2015).
# Molecular target: Beta-secretase 1 (Homo sapiens, UniProt P56817)
# Test: Inhibition of BACE1 in human H4 cells stably transfected with APP751 containing Swedish mutation assessed as reduction in Abeta (1 to 40) and Abeta (1 to 42) production incubated for 19 hrs
# Type: cell-based
# Sequence of Beta-secretase 1 (P56817 whole entry): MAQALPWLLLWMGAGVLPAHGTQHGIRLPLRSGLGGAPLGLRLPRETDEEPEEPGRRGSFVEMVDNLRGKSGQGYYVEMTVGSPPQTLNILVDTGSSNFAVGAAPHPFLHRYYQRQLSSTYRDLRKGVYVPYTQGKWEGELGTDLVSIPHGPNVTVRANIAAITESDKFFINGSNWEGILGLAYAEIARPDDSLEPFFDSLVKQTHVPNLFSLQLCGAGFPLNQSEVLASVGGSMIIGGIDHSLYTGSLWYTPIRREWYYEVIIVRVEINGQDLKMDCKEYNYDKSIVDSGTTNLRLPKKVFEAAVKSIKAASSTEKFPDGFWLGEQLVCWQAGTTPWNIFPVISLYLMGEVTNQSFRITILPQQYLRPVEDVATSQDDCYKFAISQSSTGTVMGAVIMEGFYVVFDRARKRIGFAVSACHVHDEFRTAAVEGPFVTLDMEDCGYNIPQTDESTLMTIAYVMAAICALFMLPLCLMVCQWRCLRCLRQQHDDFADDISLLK
row,SMILES,IC50
1,Cc1noc(C)c1[C@@H]1C[C@@](C)(c2cc(-c3cccnc3C#N)c(F)cc2F)N=C(N)S1,0.087 µM
2,Cc1noc(C)c1[C@@H]1C[C@@](C)(c2cc(-c3cncnc3)c(F)cc2F)N=C(N)S1,0.008 µM
3,Cc1noc(C)c1[C@@H]1C[C@@H](c2cccc(-c3cncnc3)c2)N=C(N)S1,0.23 µM
4,CC#Cc1cncc(-c2csc([C@@H]3C[C@@H](c4c(C)noc4C)SC(N)=N3)c2)c1,0.06 µM
5,Cc1noc(C)c1[C@@H]1C[C@@H](c2cc(-c3cncnc3)c(F)cc2F)N=C(N)S1,0.2 µM
6,CC#Cc1cncc(-c2cc(Cl)c([C@]3(C)C[C@@H](c4c(C)noc4C)SC(N)=N3)s2)c1,0.03 µM
7,Cc1noc(C)c1[C@@H]1C[C@@H](c2cc(-c3cccc(C#N)c3)cs2)N=C(N)S1,0.3 µM
8,Cc1noc(CC(C)(C)O)c1[C@@H]1C[C@@](C)(c2ccc(F)cc2F)N=C(N)S1,0.11 µM
9,Cc1noc(C)c1[C@@H]1C[C@@H](c2cc(NC(=O)c3ccc(Br)cn3)ccc2F)N=C(N)S1,0.022 µM
